The text below walks through data of patent US8008488B2 (Abbott GmbH & Co. KG, priority 2003, dated 2011).

The target in experiment [1] is T1, human dopamine D3 receptors (Homo sapiens, UniProt P35462).
T1 construct: expressed in transfected cells
Nature of the experiment: Dopamine D3 receptor binding, displacement of [125I]-iodosulpride. The following applies: membranes from HEK-293 cells with stably expressed human D3 receptors, 0.1 nM [125I]-iodosulpride. The method, then: (§1) The substance to be tested was dissolved either in methanol/Chremophor® (BASF-AG) or in dimethyl sulfoxide and then diluted with water to the desired concentration.
(§2) Triplicate mixtures were carried out.
The incubation buffer contained 50 mM Tris, 120 mM NaCl, 5 mM KCl, 2 mM CaCl2, 2 mM MgCl2 and 0.1% bovine serum albumin, 10 μM quinolone, 0.1% ascorbic acid (prepared fresh each day). The buffer was adjusted to pH 7.4 with HCl.
(§3) Measurement and Evaluation:
(§4) After incubation at 25° C. for 60 minutes, the mixtures were filtered under vacuum through Whatman GF/B glass fiber filters using a cell harvester. The filters were transferred by a filter transfer system into scintillation vials. After addition of 4 ml of Ultima Gold® (Packard), the samples were shaken for one hour and then the radioactivity was calculated in a beta counter (Packard, Tricarb 2000 or 2200CA). The cp values were converted into dpm by means of a standard quench series with the aid of the instrument's own program.
(§5) Evaluation of the inhibition plots took place by iterative nonlinear regression analysis using the Statistical Analysis System (SAS) similar to the “LIGAND” program described by Munson and Rodbard.
(Displacement assays read how much labelled ligand stays bound in the presence of the test substance.)

Experiment [2] has as its target T2, human dopamine D2L receptors (long isoform) (Homo sapiens, UniProt P14416).
T2 construct: expressed in transfected cells
Kind of experiment: Dopamine D2L receptor binding, displacement of [125I]-iodospiperone. The following applies: *Ki(D2L)/Ki(D3), HEK-293 membranes, 0.01 nM [125I]-iodospiperone. The method, then:
as §1, §2
The incubation buffer contained 50 mM Tris, 120 mM NaCl, 5 mM KCl, 2 mM CaCl2, 2 mM MgCl2 and 0.1% bovine serum albumin. The buffer was adjusted to pH 7.4 with HCl.
as §3, §4, §5

Where a name gives a salt, the structure may show the parent alone.

One may read the Ki as a dissociation constant, usually derived from enzyme kinetics or from competition with a known ligand. Lower therefore signals higher affinity.

T1 sequence (P35462 whole entry): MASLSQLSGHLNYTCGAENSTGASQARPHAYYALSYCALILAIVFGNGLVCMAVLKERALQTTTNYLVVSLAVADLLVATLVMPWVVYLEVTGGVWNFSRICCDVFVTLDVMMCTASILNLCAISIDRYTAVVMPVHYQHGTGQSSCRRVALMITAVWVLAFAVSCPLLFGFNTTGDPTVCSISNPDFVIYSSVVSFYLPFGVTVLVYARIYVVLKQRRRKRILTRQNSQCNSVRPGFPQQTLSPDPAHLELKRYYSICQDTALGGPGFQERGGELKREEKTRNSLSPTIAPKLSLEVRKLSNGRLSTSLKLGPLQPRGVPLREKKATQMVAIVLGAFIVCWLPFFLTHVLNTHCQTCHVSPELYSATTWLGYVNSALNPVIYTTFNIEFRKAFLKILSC
T2 sequence (P14416 whole entry, canonical isoform): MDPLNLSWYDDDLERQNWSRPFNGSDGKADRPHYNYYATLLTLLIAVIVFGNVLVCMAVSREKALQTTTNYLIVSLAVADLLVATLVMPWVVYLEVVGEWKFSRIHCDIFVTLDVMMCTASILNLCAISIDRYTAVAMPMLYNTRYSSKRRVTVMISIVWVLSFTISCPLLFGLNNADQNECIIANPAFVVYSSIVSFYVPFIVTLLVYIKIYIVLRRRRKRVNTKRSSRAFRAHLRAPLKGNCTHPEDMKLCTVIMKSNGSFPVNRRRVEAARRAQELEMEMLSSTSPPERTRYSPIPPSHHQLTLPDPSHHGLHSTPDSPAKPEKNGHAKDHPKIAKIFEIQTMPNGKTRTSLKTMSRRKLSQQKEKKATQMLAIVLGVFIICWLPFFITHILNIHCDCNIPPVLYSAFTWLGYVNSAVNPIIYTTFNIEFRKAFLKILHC

As to `CC(C)(C)c1nc(N2CCN(CCCCn3cc(C#N)c(=O)[nH]c3=O)CC2)cc(C(F)(F)F)n1` [Example 18, 1-(4-{4-[2-tert-Butyl-6-(trifluoromethyl)pyrimidin-4-yl]piperazin-1-yl}butyl)-2,4-dioxo-1,2,3,4-tetrahydropyrimidine-5-carbonitrile], the affinity in experiment [1] corresponds to a Ki of 4.78 nM. In experiment [2], the “Selectivity D3 vs. D2L*” value is 99.
The matching figures for `Cc1ccn(CCCCN2CCN(c3cc(C(F)(F)F)nc(C(C)(C)C)n3)CC2)c(=O)n1` [Example 8, 1-(4-{4-[2-tert-Butyl-6-(trifluoromethyl)pyrimidin-4-yl]piperazin-1-yl}butyl)-4-methylpyrimidin-2(1H)-one]: 4.4 nM and 71.
On the same counts, the results for `Cc1cn(CCCCN2CCN(c3cccc(Cl)c3Cl)CC2)c(=O)[nH]c1=O` [Example 135, 1-{4-[4-(2,3-Dichlorophenyl)piperazin-1-yl]butyl}-5-methyl-1H-pyrimidine-2,4-dione] are 0.27 nM and 87.
`CCCc1cc(N2CCN(CCCCn3ccc(C(C)C)nc3=O)CC2)nc(C(C)(C)C)n1` [Example 98, 4-(2-tert-Butyl-6-propylpyrimidin-4-yl)-1-[4-(4-isopropyl-2-oxo-2H-pyrimidin-1-yl)butyl]piperazine 1-fumarate] returned an inhibition constant (Ki) in experiment [1] of 1.62 nM. Besides, the “Selectivity D3 vs. D2L*” value in experiment [2] was 59.
On the same counts, the results for `CCCc1cc(N2CCN(CCCCn3ccc(-c4ccsc4)nc3=O)CC2)nc(C(C)(C)C)n1` [Example 93, 1-{4-[4-(2-tert-Butyl-6-propylpyrimidin-4-yl)piperazin-1-yl]butyl}-4-thiophen-3-yl-1H-pyrimidin-2-one] are 0.65 nM and 40.
The matching figures for `Cc1ccc(-c2ccn(CCCCN3CCN(c4cc(C(F)(F)F)nc(C(C)(C)C)n4)CC3)c(=O)n2)cc1` [Example 66, 4-(2-tert-Butyl-6-trifluoromethylpyrimidin-4-yl)-1-[4-(2-oxo-4-(p-tolyl)-2H-pyrimidin-1-yl)butyl]piperazin-1-ium fumarate]: 13.5 nM and 37.
On the same counts, the results for `Cc1cn(CCCCN2CCN(c3cc(C(F)(F)F)nc(C(C)(C)C)n3)CC2)c(=O)nc1S` [Example 2, 1-(4-{4-[2-tert-Butyl-6-(trifluoromethyl)pyrimidin-4-yl]piperazin-1-yl}butyl)-4-mercapto-5-methylpyrimidin-2(1H)-one] are 3.23 nM and 88.
Compound `Cc1cc(C)cc(N2CCN(CCCCn3cc(C)c(=O)[nH]c3=O)CC2)c1` [Example 132, 1-{4-[4-(3,5-Dimethylphenyl)piperazin-1-yl]butyl}-5-methyl-1H-pyrimidine-2,4-dione] yielded a Ki in experiment [1] of 5.5 nM. Moreover, the “Selectivity D3 vs. D2L*” value in experiment [2] was 34.
On the same counts, the results for `CCc1cn(CCCCN2CCN(c3cc(C(F)(F)F)nc(C(C)(C)C)n3)CC2)c(=O)[nH]c1=O` [Example 83, 4-(2-tert-Butyl-6-trifluoromethylpyrimidin-4-yl)-1-[4-(5-ethyl-2,4-dioxo-3,4-dihydro-2H-pyrimidin-1-yl)butyl]piperazine 1-fumarate] are 1.66 nM and 89.
The matching figures for `CCCc1cc(N2CCN(C(C)CCCn3cc(C)c(=O)[nH]c3=O)CC2)nc(C(C)(C)C)n1` (single isomer, unassigned; (-)) [Example 76, (−)-1-{4-[4-(2-tert-Butyl-6-propylpyrimidin-4-yl)piperazin-1-yl]pentyl}-5-methyl-1H-pyrimidine-2,4-dione]: 3.03 nM and 103.
The matching figures for `Cc1cc(N2CCN(CCCCn3cc(C)c(O)nc3=O)CC2)nc(C(C)(C)C)n1` [Example 29, 1-{4-[4-(2-tert-Butyl-6-methylpyrimidin-4-yl)piperazin-1-yl]butyl}-4-hydroxy-5-methylpyrimidin-2(1H)-one]: 7.64 nM and 67.
